Measured values from patent US11274073B2, “TRPV1 modulator compounds” (ANTALGENICS, S.L., priority 2017, dated 2022).

Target: T1, rat TRPV1 channel (Rattus norvegicus, UniProt O35433)
T1 construct: expressed in transfected cells; host or cells: SH-SY5Y (human neuroblastoma) stably expressing rat TRPV1, under puromycin selection
Experiment: Calcium microfluorometry assay on TRPV1-SH-SY5Y cells, single concentration 10 μM
Assay type: cell-based
Conditions: for TRPV1 blockage at 10 μM (% ± SD): compound 10 μM before stimulation with 10 μM capsaicin, RR (10 μM Ruthenium Red) = 100%; for TRPV1 activation at 10 μM (% ± SD): compound 10 μM, Fluo-4 NW fluorescence, Cap (10 μM capsaicin) = 100%
Experimental: The activity of the compounds was determined on TRPV1 expressing cells (TRPV1-SH-SY5Y) by Calcium microfluorometry assay.
SH-SY5Y cells stably expressing rat TRPV1 channel (SH-SY5Y-TRPV1) were grown in Earle's minimum essential medium (MEM) containing 10% (v/v) of FCS, 1% nonessential amino acids, 2 mM L-glutamine, 100 μg/ml streptomycin, 100 U/ml penicillin, and 0.4 μg/ml puromycin in a humidity-controlled incubator with 5% CO2 and at 37° C. For fluorescence assays, cells expressing TRPV1 channel (TRPV1-SH-SY5Y) were seeded in 96-well plates (Corning Incorporated, Corning, N.Y.) at a cell density of 40,000 cells 2 days before treatment. The day of treatment the medium was replaced with 100 μL of the dye loading solution Fluo-4 NW supplemented with probenecid 2.5 mM. After incubation at 37° C. in a humidified atmosphere of 5% CO2 for 60 minutes, plates were transferred to a fluorescence plate reader (Polastar Omega BMG Labtech). The baseline fluorescence of Fluo-4 dye ([…]) was recorded for 4 cycles. […] The antagonist (10 μM Ruthenium Red for TRPV1) was added for the blockade. The changes in fluorescence intensity were recorded during 10 cycles more.

T1 sequence (O35433 whole entry): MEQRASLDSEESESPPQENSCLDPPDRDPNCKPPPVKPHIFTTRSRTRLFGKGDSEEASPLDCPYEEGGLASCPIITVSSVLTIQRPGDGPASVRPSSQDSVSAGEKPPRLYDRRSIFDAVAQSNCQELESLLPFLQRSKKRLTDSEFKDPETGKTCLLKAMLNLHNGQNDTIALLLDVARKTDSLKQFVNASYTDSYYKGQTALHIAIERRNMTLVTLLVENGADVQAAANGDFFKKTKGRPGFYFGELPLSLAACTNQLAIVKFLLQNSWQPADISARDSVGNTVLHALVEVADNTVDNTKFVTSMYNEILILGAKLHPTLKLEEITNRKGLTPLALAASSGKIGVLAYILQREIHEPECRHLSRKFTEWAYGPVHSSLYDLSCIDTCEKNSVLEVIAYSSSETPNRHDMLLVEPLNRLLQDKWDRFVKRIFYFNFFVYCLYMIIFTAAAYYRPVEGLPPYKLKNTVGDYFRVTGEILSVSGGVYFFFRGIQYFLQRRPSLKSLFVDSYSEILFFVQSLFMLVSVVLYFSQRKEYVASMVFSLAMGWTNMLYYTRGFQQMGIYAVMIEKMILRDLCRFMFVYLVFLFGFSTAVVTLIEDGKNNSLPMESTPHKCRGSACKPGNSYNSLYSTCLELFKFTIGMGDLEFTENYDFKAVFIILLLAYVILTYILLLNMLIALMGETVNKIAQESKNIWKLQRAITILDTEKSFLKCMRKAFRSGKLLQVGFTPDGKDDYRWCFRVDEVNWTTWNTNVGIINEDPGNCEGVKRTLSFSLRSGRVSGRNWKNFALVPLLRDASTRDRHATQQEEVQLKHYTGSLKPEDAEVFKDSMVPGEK

CC(C)=CCC/C(C)=C/C(=O)OCC(=O)NCCc1cc(O)c(O)cc1I [Ex-59, (E)-2-((4,5-dihydroxy-2-iodophenethyl)amino)-2-oxoethyl 3,7-dimethylocta-2,6-dienoate]
TRPV1 blockage at 10 μM (% ± SD): 46.3 ± 12.70%

CCCCCC[C@@H](O)C/C=C\CCCCCCCC(=O)OCC(=O)NCc1ccc(O)c(OC)c1 [Ex-44, (R,Z)-2-((4-hydroxy-3-methoxybenzyl)amino)-2-oxoethyl 12-hydroxyoctadec-9-enoate]
TRPV1 activation at 10 μM (% ± SD): 60.84 ± 12.80%

COc1cc(CNC(=O)COC(=O)CC(C)C)c(I)cc1O [Ex-21, 2-((4-hydroxy-2-iodo-5-methoxybenzyl)amino)-2-oxoethyl 3-methyl-butanoate]
TRPV1 blockage at 10 μM (% ± SD): 8.35 ± 4.10%

CCCCCCCC(=O)OCC(=O)NCc1ccc(O)c(OC)c1 [Ex-28, 2-((4-hydroxy-3-methoxy-benzyl)amino)-2-oxoethyl octanoate]
TRPV1 activation at 10 μM (% ± SD): 54.08 ± 4.09%

CCCCCC(=O)OCC(=O)NCc1cc(OC)c(O)cc1I [Ex-23, 2-((4-hydroxy-2-iodo-5-methoxybenzyl)amino)-2-oxoethyl hexanoate]
TRPV1 blockage at 10 μM (% ± SD): 23.14 ± 7.81%

C/C=C/C=C/C(=O)OCC(=O)NCc1cc(OC)c(O)cc1I [Ex-25, (2E,4E)-2-((4-hydroxy-2-iodo-5-methoxybenzyl)amino)-2-oxoethyl hexa-2,4-dienoate]
TRPV1 blockage at 10 μM (% ± SD): 13.98 ± 5.98%

CCCCCCCCCCCCCCCCCC(=O)OCC(=O)NCc1ccc(O)c(OC)c1 [Ex-40, 2-((4-hydroxy-3-methoxy-benzyl)amino)-2-oxoethyl stearate]
TRPV1 activation at 10 μM (% ± SD): 54.74 ± 17.75%

CCCCCCCCC(=O)OCC(=O)NCc1ccc(O)c(OC)c1 [Ex-30, 2-((4-hydroxy-3-methoxybenzyl)amino)-2-oxoethyl nonanoate]
TRPV1 activation at 10 μM (% ± SD): 68.45 ± 7.20%

CCCCCCCCCC(=O)OCC(=O)NCc1ccc(O)c(OC)c1 [Ex-34, 2-((4-hydroxy-3-methoxy-benzyl)amino)-2-oxoethyl decanoate]
TRPV1 activation at 10 μM (% ± SD): 47.91 ± 10.32%

CCCCCCCC/C=C\CCCCCCCC(=O)OCC(=O)NCCc1cc(O)c(O)cc1I [Ex-63, 2-((4,5-dihydroxy-2-iodophenethyl)amino)-2-oxoethyl oleate]
TRPV1 blockage at 10 μM (% ± SD): 1.13 ± 5.56%

CCCCCCCC(=O)OCC(=O)NCc1cc(OC)c(O)cc1I [Ex-29, 2-((4-hydroxy-2-iodo-5-methoxybenzyl)amino)-2-oxoethyl octanoate]
TRPV1 blockage at 10 μM (% ± SD): 31.23 ± 8.34%

CCCC(=O)OCC(=O)NCc1cc(OC)c(O)cc1I [Ex-17, 2-((4-hydroxy-2-iodo-5-methoxybenzyl)amino)-2-oxoethyl butyrate]
TRPV1 blockage at 10 μM (% ± SD): 14.44 ± 0.27%

CCCCC(=O)OCC(=O)NCc1cc(OC)c(O)cc1I [Ex-19, 2-((4-hydroxy-2-iodo-5-methoxybenzyl)amino)-2-oxoethyl pentanoate]
TRPV1 blockage at 10 μM (% ± SD): 21.85 ± 2.85%

CCCCCCCCCC(=O)OCC(=O)NCc1cc(OC)c(O)cc1I [Ex-35, 2-((4-hydroxy-2-iodo-5-methoxybenzyl)amino)-2-oxoethyl decanoate]
TRPV1 blockage at 10 μM (% ± SD): 20.48 ± 9.67%

CCCCCCC(=O)OCC(=O)NCc1cc(OC)c(O)cc1I [Ex-27, 2-((4-hydroxy-2-iodo-5-methoxybenzyl)amino)-2-oxoethyl heptanoate]
TRPV1 blockage at 10 μM (% ± SD): 21.80 ± 5.41%

CCCCCCC(=O)OCC(=O)NCc1ccc(O)c(OC)c1 [Ex-26, 2-((4-hydroxy-3-methoxy-benzyl)amino)-2-oxoethyl heptanoate]
TRPV1 activation at 10 μM (% ± SD): 74.41 ± 17.66%

N.N.N.N.N.N.N.N.N.N.N.N.N.N.[Cl-].[Cl-].[Cl-].[Cl-].[Cl-].[Cl-].[O-2].[O-2].[Ru+3].[Ru+3].[Ru+4] [RR, Ruthenium Red, reference compound]
TRPV1 blockage at 10 μM (% ± SD): 100%

CCCCCCCC/C=C\CCCCCCCC(=O)OCC(=O)NCc1cc(OC)c(O)cc1I [Ex-43, 2-((4-hydroxy-2-iodo-5-methoxybenzyl)amino)-2-oxoethyl oleate]
TRPV1 blockage at 10 μM (% ± SD): 45.68 ± 14.26%

CCCCCCCCCCCCCCCCCC(=O)OCC(=O)NCc1cc(OC)c(O)cc1I [Ex-41, 2-((4-hydroxy-2-iodo-5-methoxybenzyl)amino)-2-oxoethyl stearate]
TRPV1 blockage at 10 μM (% ± SD): 38.89 ± 3.53%

CCCCCCCC/C=C\CCCCCCCCCCCC(=O)OCC(=O)NCc1ccc(O)c(OC)c1 [Ex-48, (Z)-2-((4-hydroxy-3-methoxybenzyl)amino)-2-oxoethyl docos-13-enoate]
TRPV1 activation at 10 μM (% ± SD): 47.40 ± 14.56%

COc1cc(CNC(=O)COC(=O)CC/C(C)=C/CC/C(C)=C/CC/C=C(\C)CCC=C(C)CCC=C(C)C)c(I)cc1O (stereo in doubt) [Ex-53, (4E,8E,12E,16E)-2-((4-hydroxy-2-iodo-5-methoxy-benzyl)amino)-2-oxoethyl 4,8,13,17,21-pentamethyl-docosa-4,8,12,16,20-pentaenoate]
TRPV1 blockage at 10 μM (% ± SD): 31.05 ± 1.46%

CCCCCCCC/C=C\CCCCCCCCCCCC(=O)OCC(=O)NCc1cc(OC)c(O)cc1I [Ex-49, (Z)-2-((4-hydroxy-2-iodo-5-methoxybenzyl)amino)-2-oxoethyl docos-13-enoate]
TRPV1 blockage at 10 μM (% ± SD): 34.94 ± 5.51%

COc1cc(CNC(=O)CCCC/C=C/C(C)C)ccc1O [Capsaicin, reference compound]
TRPV1 activation at 10 μM (% ± SD): 100%

CCCCCC[C@H](C/C=C\CCCCCCCC(=O)OCC(=O)NCc1ccc(O)c(OC)c1)OC(=O)Cc1ccccc1 [Ex-46, (Z)-2-((4-hydroxy-3-methoxy-benzyl)amino)-2-oxoethyl 12-(2-phenylacetoxy)octadec-9-enoate]
TRPV1 activation at 10 μM (% ± SD): 33.16 ± 9.97%

CCCCCCCCC(=O)OCC(=O)NCc1cc(OC)c(O)cc1I [Ex-31, 2-((4-hydroxy-2-iodo-5-methoxybenzyl)amino)-2-oxoethyl nonanoate]
TRPV1 blockage at 10 μM (% ± SD): 25.23 ± 7.63%

CCCCC/C=C\C/C=C\C/C=C\C/C=C\CCCC(=O)OCC(=O)NCc1ccc(O)c(OC)c1 [Ex-50, (5Z,8Z,11Z,14Z)-2-((4-hydroxy-3-methoxy-benzyl)amino)-2-oxoethyl icosa-5,8,11,14-tetraenoate]
TRPV1 activation at 10 μM (% ± SD): 73.80 ± 7.42%

CCCCC(=O)OCC(=O)NCc1ccc(O)c(OC)c1 [Ex-18, 2-((4-hydroxy-3-methoxy-benzyl)amino)-2-oxoethyl pentanoate]
TRPV1 activation at 10 μM (% ± SD): 29.43 ± 14.90%

CCCCCC[C@H](C/C=C\CCCCCCCC(=O)OCC(=O)NCc1cc(OC)c(O)cc1I)OC(=O)Cc1ccccc1 [Ex-47, (Z)-2-((4-hydroxy-2-iodo-5-methoxybenzyl)amino)-2-oxoethyl 12-(2-phenyl-acetoxy)octadec-9-enoate]
TRPV1 blockage at 10 μM (% ± SD): 63.29 ± 12.80%

CCCCCCCC/C=C\CCCCCCCC(=O)OCC(=O)NCc1ccc(O)c(OC)c1 [Ex-42, 2-((4-hydroxy-3-methoxy-benzyl)amino)-2-oxoethyl oleate]
TRPV1 activation at 10 μM (% ± SD): 77.19 ± 11.95%

CCCCCC(=O)OCC(=O)NCc1ccc(O)c(OC)c1 [Ex-22, 2-((4-hydroxy-3-methoxy-benzyl)amino)-2-oxoethyl hexanoate]
TRPV1 activation at 10 μM (% ± SD): 73.32 ± 12.83%

CCCC(=O)OCC(=O)NCc1ccc(O)c(OC)c1 [Ex-16, 2-((4-hydroxy-3-methoxybenzyl)amino)-2-oxoethyl butyrate]
TRPV1 activation at 10 μM (% ± SD): 25.59 ± 4.29%

CCCCCC[C@@H](O)C/C=C\CCCCCCCC(=O)OCC(=O)NCc1cc(OC)c(O)cc1I [Ex-45, (R,Z)-2-((4-hydroxy-2-iodo-5-methoxybenzyl)amino)-2-oxoethyl 12-hydroxyoctadec-9-enoate]
TRPV1 blockage at 10 μM (% ± SD): 21.74 ± 7.05%

CCCCCCCCCCCCCCC(=O)OCC(=O)NCc1cc(OC)c(O)cc1I [Ex-39, 2-((4-hydroxy-2-iodo-5-methoxybenzyl)amino)-2-oxoethyl pentadecanoate]
TRPV1 blockage at 10 μM (% ± SD): 21.82 ± 4.75%

CCCCC/C=C\C/C=C\C/C=C\C/C=C\CCCC(=O)OCC(=O)NCCc1ccc(O)c(O)c1 [Ex-64, (5Z,8Z,11Z,14Z)-2-((3,4-dihydroxyphenethyl)amino)-2-oxoethyl icosa-5,8,11,14-tetraenoate]
TRPV1 activation at 10 μM (% ± SD): 79.05 ± 11.25%

CCCCCCCC/C=C\CCCCCCCC(=O)OCC(=O)NCCc1ccc(O)c(O)c1 [Ex-62, 2-((3,4-dihydroxyphenethyl)-amino)-2-oxoethyl oleate]
TRPV1 activation at 10 μM (% ± SD): 78.48 ± 4.61%

C/C=C/C=C/C(=O)OCC(=O)NCc1ccc(O)c(OC)c1 [Ex-24, (2E,4E)-2-((4-hydroxy-3-methoxybenzyl)amino)-2-oxoethyl hexa-2,4-dienoate]
TRPV1 activation at 10 μM (% ± SD): 75.59 ± 6.25%

CCCCCCCCCCCCCCC(=O)OCC(=O)NCc1ccc(O)c(OC)c1 [Ex-38, 2-((4-hydroxy-3-methoxy-benzyl)amino)-2-oxoethyl pentadecanoate]
TRPV1 activation at 10 μM (% ± SD): 75.96 ± 9.86%

CCCCC/C=C\C/C=C\C/C=C\C/C=C\CCCC(=O)OCC(=O)NCc1cc(OC)c(O)cc1I [Ex-51, (5Z,8Z,11Z,14Z)-2-((4-hydroxy-2-iodo-5-methoxy-benzyl)amino)-2-oxoethyl icosa-5,8,11,14-tetraenoate]
TRPV1 blockage at 10 μM (% ± SD): 30.85 ± 5.87%
